For one assay, the target named is Alpha-enolase (Homo sapiens, UniProt P06733). The assay is described as follows: Enolase Enzymatic Assays. Conditions: pH 7.4. The method, then: (§1) Enolase activity was measured by two different methods: a fluorometric NADH-linked assay or adirect spectrophotometric assay via formation of PEP. In the fluorescent assay,enolase activity was measured via NADH oxidation in a pyruvate kinase-dehydrogenase coupled assay. The assay is conducted in 10 mM KCl, 5 mM MgSO4, and 100 mM triethanolamine at pH 7.4, with 400 uM NADH and 2 mM ADP. 2-PGA, pyruvate kinase (PK) and lactate dehydrogenase(LDH) are provided in excess, with conversion of 2-PGA to PEP by enolase being rate limiting. PEP (with ADP) is substrate of PK; pyruvate formed by thisreaction is linked to NADH oxidation by LDH. Enolase activity is determinedby fluorescence measurement of oxidation of NADH by excitation at 340 nmand emission at 460 nm. The substrate concentration was 5 mM 2-PGA unlessotherwise indicated. Fluorescence was measured using an Omega FluorescencePlate Reader (BMG Labtech). Alternatively, enolase activity was measured directly by the appearance of PEP from 2-PGA via absorption at 240 nm. The assay medium was the same, except that all the auxiliary reagents (PK or LDH, NADH and ADP) are omitted. Both assays were conducted in a 96-well plate format, with the direct assay performed in UV-transmissible plates.

The target of a further assay is Gamma-enolase (Homo sapiens, UniProt P09104). The assay is described as follows: Enolase Enzymatic Assays. Conditions: pH 7.4. How it is done: as §1

Structures are written as SMILES.

Gamma-enolase, sequence (P09104 whole entry): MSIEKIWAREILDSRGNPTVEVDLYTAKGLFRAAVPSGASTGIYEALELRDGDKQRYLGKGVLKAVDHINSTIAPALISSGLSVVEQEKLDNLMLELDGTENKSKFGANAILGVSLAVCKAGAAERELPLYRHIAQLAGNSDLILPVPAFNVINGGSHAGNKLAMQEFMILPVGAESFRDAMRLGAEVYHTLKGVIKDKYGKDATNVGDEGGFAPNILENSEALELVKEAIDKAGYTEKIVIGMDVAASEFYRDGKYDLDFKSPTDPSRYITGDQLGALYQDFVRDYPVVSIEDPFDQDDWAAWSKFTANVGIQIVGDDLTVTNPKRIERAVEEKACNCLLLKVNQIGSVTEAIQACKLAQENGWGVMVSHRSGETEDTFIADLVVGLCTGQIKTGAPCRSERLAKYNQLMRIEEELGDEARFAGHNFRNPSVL
Alpha-enolase, sequence (P06733 whole entry): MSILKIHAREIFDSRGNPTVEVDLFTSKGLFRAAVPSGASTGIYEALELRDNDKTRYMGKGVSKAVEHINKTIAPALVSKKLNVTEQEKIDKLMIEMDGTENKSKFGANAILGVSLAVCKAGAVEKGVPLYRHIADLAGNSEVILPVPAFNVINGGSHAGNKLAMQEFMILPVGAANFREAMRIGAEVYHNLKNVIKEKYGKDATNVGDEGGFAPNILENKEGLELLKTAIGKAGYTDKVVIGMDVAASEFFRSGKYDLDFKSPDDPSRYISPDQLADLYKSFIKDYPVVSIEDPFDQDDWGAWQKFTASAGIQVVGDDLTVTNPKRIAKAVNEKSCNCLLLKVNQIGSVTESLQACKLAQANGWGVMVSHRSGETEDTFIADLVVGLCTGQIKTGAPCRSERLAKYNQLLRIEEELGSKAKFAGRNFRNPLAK

Consider `O=C(CP(=O)(O)O)NO` [phosphonoacetohydroxamate (PhAH)], for which the IC50 (usually the concentration needed to halve the response being measured) was 53.2 nM at Alpha-enolase and 62.3 nM at Gamma-enolase.
For `O=C1[C@@H](P(=O)(O)O)C[C@H](O)N1O` [SF2312], in that order: 37.9 nM and 42.5 nM.

(Values after BindingDB's records for doi:10.1038/nchembio.2195 (University of Texas M. D. Anderson Cancer Center, 2016).)
